Among the test systems are BT-549; DMS-114; DMS-273; HOP-18; KM-20L2; LXFL 529; SNB-78; XF498.
Common to all, as to assay: NCI tumour cell line growth inhibition, 48 h

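How tested: cells in 96-well plates exposed to compound for 48 hours at five concentrations. The concentration for 50% growth inhibition is given as GI50.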 Active and inactive are the calls of the source. Cut-off read from the data, not from the text of the source: active = GI50 up to about 1.1 µM and inactive = higher. Numbered stars: 1 amine (or outer) side, 2 acyl side, 3 side chain; on linkers, the order of the positions; unused ones are H or OH. Bridge positions count the residues as written; N and C are the ends. Square brackets hold non-standard residues; d marks the D form. Peptide text beside a SMILES is read from it. * marks the point of attachment. ξ: configuration not given here. X33 = O=C(C(CCCCNO[*:3])N[*:1])[*:2]; Fmoc = O=C(OCC1c2ccccc2-c2ccccc21)*; ξW = NC(Cc1c[nH]c2ccccc12)C(=O)O; ξP = O=C(O)C1CCCN1 A value given as a limit tells only on which side of the number the result lay.

58 compounds from ChEMBL document CHEMBL1201862, “PubChem BioAssay data set” (2004) can be followed below.

For `c1ccc2sc(SCSc3nc4ccccc4s3)nc2c1`, the GI50 in the assay on BT-549 was > 100 µM (inactive).
Turning to `COc1ccc2nc(NCN3C(=O)c4ccccc4C3=O)sc2c1`, the GI50 in the assay with BT-549 was > 100 µM (inactive).
For `Oc1c2c(nc3cc4c(cc13)OCO4)-c1ccccc1CCC2`, the GI50 with BT-549 is > 50 µM (inactive).
Same read-out and setting: the result for `CCOC(=O)c1ccc(-c2cc(C)no2)[nH]1` reads > 100 µM (inactive).
As to `O=C(O)C(Cc1ccc(O)c([N+](=O)[O-])c1)N1C(=O)c2ccccc2C1=O` (stereo not given), in the assay with BT-549, the GI50 is > 100 µM (inactive).
On the same count and under the same terms, in the case of `CCOC(=O)C1(C#N)C2(C#N)C(N)=NC(ON=C(C)C)(ON=C(C)C)C12C#N` (stereo not given) it was > 100 µM (inactive); in that of `O=C(N/N=C/c1ccc([N+](=O)[O-])cc1)Nc1ccc(Br)cc1`, > 100 µM (inactive).
Still for that read-out and setting: the result for `O=C1NC(=O)c2ccc([N+](=O)[O-])c3cccc1c23` reads 19.2 µM (inactive); that for `CCN(CC)c1ccc2cc(-c3nnc(-c4ccccc4)[nH]3)c(=O)oc2c1`, 25.2 µM (inactive); that for `C/C1=C/C(C)CC(C)OC(=O)C(C)NC(=O)C(Cc2ccc(O)c(I)c2)N(C)C(=O)CNC(=O)C(C)C1` (stereo not given), < 0.01 µM (active).
Take `COc1cc(OCc2ccc3nc(-c4ccccc4)c(N)nc3c2)cc(OC)c1OC`: in the assay with BT-549, the GI50 is 16.1 µM (inactive).
Same read-out and setting: in the case of `CC(=O)OCC1OC(N2C(=O)NC(=O)C3C=C4CCCCC4=CC32)CC1OC(C)=O` (stereo not given) it was > 100 µM (inactive).
Regarding `NC1=NN(c2ccccc2)C(=O)C1C(=O)CCC(=O)Nc1cccc(Cl)c1` (stereo not given), the GI50 in the assay on DMS-114, in the assay on DMS-273, in the assay on HOP-18, in the assay on KM-20L2, with LXFL 529 and with SNB-78 was > 100 µM (inactive) each time. Besides, the GI50 in the assay with XF498 was > 100 µM (inactive).
On to `COC(=O)C1Cc2cccc(C)c2C1` (stereo not given), for which the GI50 in the assay with BT-549 is > 100 µM (inactive).
In the case of `CCOc1ccc(/C(Cl)=C(\C=O)c2ccc(OC)c(OC)c2)cc1OCC`, the GI50 was 11 µM (inactive) in the assay on DMS-114; 45.8 µM (inactive) in the assay with DMS-273; > 100 µM (inactive) with HOP-18; > 100 µM (inactive) in the assay on KM-20L2; 30.5 µM (inactive) in the assay with LXFL 529; 36.8 µM (inactive) in the assay with SNB-78. Besides, the GI50 in the assay on XF498 was 53.2 µM (inactive).
With `N#CC(c1ccccn1)c1nc2ccccc2[nH]1` (stereo not given), the GI50 in the assay with DMS-114 was 51.5 µM (inactive); with LXFL 529 it was > 100 µM (inactive); in the assay on SNB-78, > 100 µM (inactive); in the assay on XF498, 64.4 µM (inactive).
For `O=c1cc(-c2ccccc2)nc(/C=C(\O)c2ccncc2)n1-c1ccccc1`, the GI50 with DMS-114, in the assay with DMS-273, in the assay with HOP-18, in the assay with KM-20L2, in the assay with LXFL 529 and with SNB-78 was > 100 µM (inactive) in each case.
As for `COc1cccc(OC)c1/C=C1\OC(=O)c2cccc(OC)c21`, the GI50 in the assay with BT-549 was 5.22 µM (inactive).
The same measure, in the same setting: in the case of `O=C(N/N=C/c1ccc([N+](=O)[O-])cc1)Nc1ccc(C(=O)O)cc1` it was 35.2 µM (inactive).
On the same count and under the same terms, the result for `Cc1ccc(C(=O)/C=C2\Nc3ccccc3N=C2NC23CC4CC(CC(C4)C2)C3)cc1` reads > 10 µM (inactive).
Consider `OCC(O)C(OC1OC(CO)C(O)C(O)C1O)c1nn(-c2ccc(F)cc2)c2nc3cc(Cl)c(Cl)cc3cc12` (stereo not given), for which the GI50 with DMS-114, in the assay with KM-20L2, with LXFL 529, in the assay on SNB-78 and in the assay with XF498 was > 100 µM (inactive) each time.
In the case of `CC1=C(C(=O)Nc2cccc3c2C(=O)NC3=O)CC(C(=O)Nc2cccc3c2C(=O)NC3=O)=C(C)N1`, the GI50 with BT-549 was > 100 µM (inactive).
Same read-out and setting: in the case of `CCOC(=O)N/N=C(\CC)NO` it was > 100 µM (inactive); in that of `CCCCC(O)(c1ccccc1)C(O)(c1ccccc1)c1c(F)c(F)c(F)c(F)c1F` (stereo not given), 33.3 µM (inactive); in that of `c1ccc2c(c1)nc1ccccn12`, > 100 µM (inactive).
On the same count and under the same terms, in the case of `C[N+]12CCCCC1C(COc1cccc3cccnc13)CCC2` (stereo not given) it was 42 µM (inactive).
As to `CN(C)CCCCCNc1c2ccccc2nc2cccc([N+](=O)[O-])c12`, the GI50 in the assay with BT-549 is 0.000946 µM (active); with DMS-114, 0.00242 µM (active); with DMS-273, 0.00197 µM (active); in the assay on HOP-18, 0.027 µM (active); with KM-20L2, 0.0036 µM (active); in the assay on LXFL 529 it was 0.0115 µM (active). Besides, the GI50 in the assay with SNB-78 is 0.00565 µM (active); in the assay on XF498, 0.00277 µM (active).
Regarding `COc1ccc(/C=N/N=C(\N)NO)c(Cl)c1O`, the GI50 in the assay with DMS-114 was 5.9 µM (inactive); in the assay with HOP-18 it was 2.22 µM (inactive); in the assay with LXFL 529, 2.89 µM (inactive); with SNB-78, 34.1 µM (inactive).
Turning to `Cn1c(C(C#N)c2cc(Cl)ncn2)nc2ccccc21` (stereo not given), in the assay on BT-549, the GI50 was > 100 µM (inactive).
Same read-out and setting: in the case of `CCOC(=O)c1c2ccccc2n2c(=O)n(C)nnc12` it was > 100 µM (inactive).
Turning to `Cc1ccccc1NC(=O)/C=N/O`, the GI50 with DMS-114 is > 100 µM (inactive); with DMS-273, > 100 µM (inactive); in the assay on HOP-18 it was > 100 µM (inactive); in the assay on KM-20L2 it was 16.9 µM (inactive); with LXFL 529, > 100 µM (inactive).
On to `CCOC(=O)C1=NN(c2ccccc2)C(=O)/C1=C\NC(=S)C(N)=S`, for which the GI50 in the assay with BT-549 is 35 µM (inactive).
For the compound `COc1ccc(/C(Cl)=C(\C=O)c2ccc(OC)c(OC)c2)cc1OC`, the GI50 is > 100 µM (inactive) in the assay on BT-549; > 90.2 µM (inactive) with DMS-114; > 90.4 µM (inactive) in the assay on DMS-273; > 98.2 µM (inactive) in the assay with HOP-18; > 100 µM (inactive) in the assay with KM-20L2; > 100 µM (inactive) in the assay with SNB-78. The GI50 with XF498 is > 88.9 µM (inactive).
As for `Nn1c(SCC(=O)NCc2ccccc2)nc2ccccc2c1=O`, the GI50 in the assay with BT-549 was 73.3 µM (inactive).
As for `COC(c1ccccc1)C(c1ccccc1)N1CCOCC1` (stereo not given), the GI50 in the assay on DMS-114, in the assay on DMS-273, in the assay on HOP-18, in the assay with KM-20L2, in the assay with LXFL 529 and in the assay on SNB-78 was > 100 µM (inactive) each time. Moreover, the GI50 in the assay with XF498 is 53 µM (inactive).
`O=C1C(Cl)C(c2ccccc2O)N1n1cnc2ccccc2c1=O` (stereo not given): the GI50 was 20 µM (inactive) in the assay with DMS-114; 63.4 µM (inactive) with DMS-273; 37 µM (inactive) in the assay with HOP-18; 78.3 µM (inactive) in the assay on KM-20L2; 61.1 µM (inactive) in the assay with LXFL 529; 26.2 µM (inactive) with SNB-78. In the assay on XF498, the GI50 was 5.32 µM (inactive).
Regarding `COC(=O)c1c(OC(C)=O)ccc2c1c1c(n2C)C(=O)c2ccccc2C1=O`, in the assay with BT-549, the GI50 was 17 µM (inactive).
Turning to `O=[N+]([O-])C(=C(Sc1ccccc1)Sc1ccccc1)C(Cl)=C(Cl)Cl`, the GI50 in the assay on BT-549 was 1.18 µM (inactive).
Same read-out and setting: in the case of `COc1cc2c3c(n(Cc4ccccc4)c(=O)c2cc1OC)-c1ccccc1C3=O` it was > 100 µM (inactive); in that of `O=P(O)(O)c1ccc(-c2ccc(I)cc2)cc1`, > 100 µM (inactive).
With `COC1CCC(OS(C)(=O)=O)C(CO)O1` (stereo not given), the GI50 in the assay with KM-20L2, in the assay on LXFL 529 and with XF498 was > 100 µM (inactive) throughout.
For `O=C1Nc2cccc3cc(NCC(O)CCl)cc1c23` (stereo not given), the GI50 in the assay with BT-549 was 39.9 µM (inactive).
As to `O=C(N/C(=C\c1ccc([N+](=O)[O-])cc1)c1nc2cc(Cl)ccc2[nH]1)c1ccccc1`, the GI50 in the assay with DMS-114 is 16.3 µM (inactive); in the assay on KM-20L2, 16.3 µM (inactive); with LXFL 529, 17.1 µM (inactive); with SNB-78, 23.8 µM (inactive); with XF498 it was 15.3 µM (inactive).
`C=CCN(C(C)=O)c1cc(OCc2ccccc2)c2c(c1)c(C)cn2S(=O)(=O)c1ccccc1`: in the assay with BT-549, the GI50 was 11.4 µM (inactive).
On the same count and under the same terms, the result for `CCOP(=O)(OCC)[C@H]1OC(C)(C)O[C@@H]1CO` reads > 100 µM (inactive).
`Cc1ccc(NC(=O)NC23CC4CC(CC(F)(C4)C2)C3)cc1`: the GI50 in the assay with DMS-114 is 46.6 µM (inactive); with DMS-273, 86.3 µM (inactive); with KM-20L2, 45.9 µM (inactive); with LXFL 529 it was 88.7 µM (inactive); in the assay with SNB-78 it was > 100 µM (inactive); in the assay on XF498, > 100 µM (inactive).
`Cc1cc(C)c2c(n1)S(=O)(=O)N(CCCN1CCN(c3cccc(Cl)c3)CC1)C(C(=O)c1ccccc1)=C2O`: the GI50 with BT-549 was 52.6 µM (inactive).
Still for that read-out and setting: the result for `COc1ccc(C2CC(=O)CC(c3ccc(OC)cc3)C23C(=O)NC(=O)NC3=O)cc1` (stereo not given) reads 32.7 µM (inactive).
As to `CS/C(=N\c1ccccc1Cl)NC(=O)c1ccc(Br)cc1`, the GI50 is > 100 µM (inactive) with DMS-114; 25.5 µM (inactive) with HOP-18; > 100 µM (inactive) with KM-20L2; 79.4 µM (inactive) in the assay with LXFL 529; 19.1 µM (inactive) in the assay with SNB-78; 46.2 µM (inactive) with XF498.
In the case of `COc1cc(/C=C2\C[C@H]3[C@@H]4CCc5cc(OCCN6CCCC6)ccc5[C@H]4CC[C@]3(C)C2=O)cc(OC)c1OC`, the GI50 with BT-549 is 15.5 µM (inactive).
On the same count and under the same terms, the result for `COc1ccc(C2CC3(c4ccccc4)ON=C(c4ccccc4)N3c3ccccc3S2)cc1` (stereo not given) reads > 100 µM (inactive); that for `O=C(Nn1c(-c2ccccc2)nc2ccccc2c1=O)c1ccccn1`, > 100 µM (inactive); that for `CN(NC(=O)c1ccco1)C1=NCCCCN1`, > 100 µM (inactive).
The same measure, in the same setting: in the case of `O=C1NC2CCCCC2N=C1CC(=O)c1ccc(Br)cc1` (stereo not given) it was 14.6 µM (inactive); in that of `CC(C)C1=CC23CCC4C(C)(C(=O)O)CCCC4(C)C2CC1C1C(=O)N(c2ccc(C(=O)O)cc2)C(=O)C13` (stereo not given), > 100 µM (inactive).
As for `CC12CCC(=O)C[C@H]1CCC(OC=O)C2Br` (stereo not given in full), the GI50 with DMS-114, in the assay on DMS-273, in the assay on HOP-18, in the assay on KM-20L2, in the assay on LXFL 529 and with XF498 was > 100 µM (inactive) in each case.
Turning to `O=C(NNC(=O)c1ccccc1O)c1ccccc1O`, in the assay with BT-549, the GI50 was 0.0426 µM (active).
Same read-out and setting: in the case of `NC(=O)CNC(=O)C1CCCN1C(=O)C1CCCCNOC(=O)CC[C@@H](NC(=O)OCC2c3ccccc3-c3ccccc32)C(=O)NC(Cc2c[nH]c3ccccc23)C(=O)N1` (stereo not given in full) (Fmoc-[dE][ξW][X33][ξP]G-NH2; ester 1-3) it was > 100 µM (inactive).
